Assay [1] relates to JAK1-dependent STAT6 phosphorylation in BEAS-2B human bronchial epithelial cells. Put plainly: JAK1 pathway assay: IL-13 stimulated STAT6 phosphorylation in BEAS-2B cells. In kind it is cell-based. The conditions noted are these: BEAS-2B cells, IL-13 stimulation, read-out: IL-13 p-STAT6 BEAS-2B IC50. The method, then: JAK1 Pathway Assay in Cell Lines was Carried Out as Follows:
Inhibitor potency (EC50) was determined in cell-based assays designed to measure JAK1 dependent STAT phosphorylation.
In one assay approach, TF-1 human erythroleukemia cells obtained from the American Type Culture Collection (ATCC; Manassas, Va.) were used to measure JAK1-dependent STAT6 phosphorylation downstream of IL-13 stimulation. Prior to use in the assays, TF-1 cells were starved of GM-CSF overnight in OptiMEM medium (Life Technologies, Grand Island, N.Y.) supplemented with 0.5% charcoal/dextran stripped fetal bovine serum (FBS), 0.1 mM non-essential amino acids (NEAA), and 1 mM sodium pyruvate. The assays were run in 384-well plates in serum-free OptiMEM medium using 300,000 cells per well. In a second assay approach, BEAS-2B human bronchial epithelial cells obtained from ATCC were plated at 100,000 cells per well of a 96-well plate one day prior to the experiment. The BEAS-2B assay was run in complete growth medium (bronchial epithelial basal medium plus bulletkit; Lonza; Basel, Switzerland).
Test compounds were serially diluted 1:2 in DMSO and then diluted 1:50 in medium just before use. Diluted compounds were added to the cells, for a final DMSO concentration of 0.2%, and incubated for 30 min (for the TF-1 assay) or 1 hr (for the BEAS-2B assay) at 37° C. Then, cells were stimulated with human recombinant cytokine at their respective EC90 concentrations, as previously determined for each individual lot. Cells were stimulated with IL-13 (R&D Systems, Minneapolis, Minn.) for 15 min at 37° C. […] The resultant samples were frozen in the plates at −80° C. Compound mediated inhibition of STAT6 phosphorylation was measured in the cell lysates using MesoScale Discovery (MSD) technology (Gaithersburg, Md.).

Assay [2] addresses isolated recombinant JAK2 kinase domain (Homo sapiens (Human), UniProt O60674). Briefly: JAK2 enzyme assay (Caliper LabChip, Ki). To be noted: read-out: JAK2 Ki.
Assay [3] addresses isolated recombinant JAK1 kinase domain (Homo sapiens (Human), UniProt P23458). Briefly: JAK1 enzyme assay (Caliper LabChip, Ki). In kind it is biochemical. On the procedure: The activity of the isolated recombinant JAK1 and JAK2 kinase domain was measured by monitoring phosphorylation of a peptide derived from JAK3 ([…] fluorescently labeled on the N-terminus with 5-carboxyfluorescein) using the Caliper LabChip R technology (Caliper Life Sciences, Hopkinton, Mass.).

Like-named read-outs stand apart in the source and are kept apart here.

Sequence of isolated recombinant JAK1 kinase domain (P23458 875-1153): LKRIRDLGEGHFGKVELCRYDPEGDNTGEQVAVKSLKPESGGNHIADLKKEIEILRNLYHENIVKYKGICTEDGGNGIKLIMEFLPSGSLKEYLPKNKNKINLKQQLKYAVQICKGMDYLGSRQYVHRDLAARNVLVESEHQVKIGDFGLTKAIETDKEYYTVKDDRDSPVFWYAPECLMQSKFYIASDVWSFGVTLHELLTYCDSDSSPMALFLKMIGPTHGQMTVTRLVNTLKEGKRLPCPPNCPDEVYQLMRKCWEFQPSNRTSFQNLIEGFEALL
Sequence of isolated recombinant JAK2 kinase domain (O60674 849-1124): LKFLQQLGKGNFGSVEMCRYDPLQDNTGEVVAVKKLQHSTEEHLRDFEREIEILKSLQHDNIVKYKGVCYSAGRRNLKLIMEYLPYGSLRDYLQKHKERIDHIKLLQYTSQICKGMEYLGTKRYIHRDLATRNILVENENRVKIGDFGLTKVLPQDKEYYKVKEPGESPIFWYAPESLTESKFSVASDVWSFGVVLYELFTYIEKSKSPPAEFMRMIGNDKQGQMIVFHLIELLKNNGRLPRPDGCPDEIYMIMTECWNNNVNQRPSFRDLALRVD

Consider `O=C(Nc1cn(C2CCCNC2)nc1-c1cc2ccccc2cc1OC(F)F)c1cnn2cccnc12` (racemic) [Example 5, N-(3-(3-(difluoromethoxy)naphthalen-2-yl)-1-(piperidin-3-yl)-1H-pyrazol-4-yl)pyrazolo[1,5-a]pyrimidine-3-carboxamide], for which the IC50 – broadly, the concentration that gives 50% inhibition – in assay [1] (Homo sapiens, BEAS-2B) turned out to be 31 nM. In addition, the Ki (commonly a dissociation constant, usually derived from enzyme kinetics or from competition with a known ligand) in assay [2] amounted to 0.78 nM; in assay [3] it was 1.21 nM.
In the case of `O=C(Nc1c[nH]nc1-c1cc2c(cc1OC(F)F)CC(CO)O2)c1cnn2cccnc12` (racemic) [Example 15, N-(3-(5-(difluoromethoxy)-2-(hydroxymethyl)-2,3-dihydrobenzofuran-6-yl)-1H-pyrazol-4-yl)pyrazolo[1,5-a]pyrimidine-3-carboxamide], the IC50 in assay [1] (Homo sapiens, BEAS-2B) came to 143 nM. The Ki in assay [2] worked out at 0.24 nM; in assay [3], 0.69 nM.
For `NCC1CNc2cc(OC(F)F)c(-c3n[nH]cc3NC(=O)c3cnn4cccnc34)cc2S1` (racemic) [Example 38, N-[3-[2-(aminomethyl)-6-(difluoromethoxy)-3,4-dihydro-2H-1,4-benzothiazin-7-yl]-1H-pyrazol-4-yl]pyrazolo[1,5-a]pyrimidine-3-carboxamide] the same measures were above 1000 nM, 0.29 nM and 0.33 nM.
For `CC1CSc2cc(-c3n[nH]cc3NC(=O)c3cnn4cccnc34)c(OC(F)F)cc2N1` (racemic) [Example 41, N-[3-[6-(difluoromethoxy)-3-methyl-3,4-dihydro-2H-1,4-benzothiazin-7-yl]-1H-pyrazol-4-yl]pyrazolo[1,5-a]pyrimidine-3-carboxamide] the same measures were 4 nM, 0.06 nM and 0.08 nM.
As to `CN1CCCC(n2cc(NC(=O)c3cnn4cccnc34)c(-c3cc4cn[nH]c4cc3OC(F)F)n2)C1` (racemic) [Example 74, N-[3-[6-(difluoromethoxy)-1H-indazol-5-yl]-1-(1-methyl-3-piperidyl)pyrazol-4-yl]pyrazolo[1,5-a]pyrimidine-3-carboxamide], the IC50 in assay [1] (Homo sapiens, BEAS-2B) was determined as 18 nM. The Ki came out at 0.98 nM in assay [2] and 1.63 nM in assay [3].
For the compound `CN1CCCC1Cn1cc(NC(=O)c2cnn3cccnc23)c(-c2cc3cn[nH]c3cc2OC(F)F)n1` (racemic) [Example 75, N-[3-[6-(difluoromethoxy)-1H-indazol-5-yl]-1-[(1-methylpyrrolidin-2-yl)methyl]pyrazol-4-yl]pyrazolo[1,5-a]pyrimidine-3-carboxamide], the IC50 in assay [1] (Homo sapiens, BEAS-2B) stood at 11 nM. Also, the Ki came out at 0.26 nM in assay [2] and 0.31 nM in assay [3].
`CC1CNc2cc(OC(F)F)c(-c3nn(CCN)cc3NC(=O)c3cnn4cccnc34)cc2S1` (racemic) [Example 80, N-[1-(2-aminoethyl)-3-[6-(difluoromethoxy)-2-methyl-3,4-dihydro-2H-1,4-benzothiazin-7-yl]pyrazol-4-yl]pyrazolo[1,5-a]pyrimidine-3-carboxamide]: the IC50 in assay [1] (Homo sapiens, BEAS-2B) worked out at 13 nM. Also, the Ki in assay [2] was determined as 0.17 nM; in assay [3], 0.16 nM.
Take `CC1CNc2cc(OC(F)F)c(-c3n[nH]cc3NC(=O)c3cnn4cccnc34)cc2S1` (single isomer, unassigned) [Example 93, N-[3-[6-(difluoromethoxy)-2-methyl-3,4-dihydro-2H-1,4-benzothiazin-7-yl]-1H-pyrazol-4-yl]pyrazolo[1,5-a]pyrimidine-3-carboxamide]: in assay [1] (Homo sapiens, BEAS-2B), the 50% inhibitory concentration (IC50) was 6 nM. The inhibition constant Ki in assay [2] was determined as 0.03 nM; in assay [3], 0.07 nM.
`CC1Sc2cc(-c3n[nH]cc3NC(=O)c3cnn4cccnc34)c(OC(F)F)cc2NC1=O` (single isomer, unassigned) [Example 95, N-[3-[6-(difluoromethoxy)-2-methyl-3-oxo-4H-1,4-benzothiazin-7-yl]-1H-pyrazol-4-yl]pyrazolo[1,5-a]pyrimidine-3-carboxamide]: the IC50 in assay [1] (Homo sapiens, BEAS-2B) was found to be 60 nM. Besides, the results for the Ki in assay [2] and in assay [3] were 0.03 nM and 0.06 nM, respectively.
For the compound `CC1Sc2cc(-c3n[nH]cc3NC(=O)c3cnn4cccnc34)c(OC(F)F)cc2NC1=O` (single isomer, unassigned) [Example 96, N-[3-[6-(difluoromethoxy)-2-methyl-3-oxo-4H-1,4-benzothiazin-7-yl]-1H-pyrazol-4-yl]pyrazolo[1,5-a]pyrimidine-3-carboxamide], in assay [1], the IC50 came out at 70 nM. Moreover, the Ki in assay [2] turned out to be 0.05 nM; in assay [3], 0.07 nM.
For `CC1Sc2cc(-c3nn(C)cc3NC(=O)c3cnn4cccnc34)c(OC(F)F)cc2NC1=O` (single isomer, unassigned) [Example 97, N-[3-[6-(difluoromethoxy)-2-methyl-3-oxo-4H-1,4-benzothiazin-7-yl]-1-methyl-pyrazol-4-yl]pyrazolo[1,5-a]pyrimidine-3-carboxamide], in assay [1] (Homo sapiens, BEAS-2B), the 50% inhibitory concentration (IC50) came to 7 nM. Moreover, the results for the Ki in assay [2] and in assay [3] were 0.09 nM and 0.13 nM, respectively.
As to `CC1Sc2cc(-c3nn(C)cc3NC(=O)c3cnn4cccnc34)c(OC(F)F)cc2NC1=O` (single isomer, unassigned) [Example 98, N-[3-[6-(difluoromethoxy)-2-methyl-3-oxo-4H-1,4-benzothiazin-7-yl]-1-methyl-pyrazol-4-yl]pyrazolo[1,5-a]pyrimidine-3-carboxamide], the IC50 in assay [1] amounted to 6 nM. Further, the Ki was determined as 0.07 nM in assay [2] and 0.11 nM in assay [3].
In the case of `CC1CNc2cc(OC(F)F)c(-c3nn(CC(=O)N4CCCCC4)cc3NC(=O)c3cnn4cccnc34)cc2S1` (single isomer, unassigned) [Example 101, N-[3-[6-(difluoromethoxy)-2-methyl-3,4-dihydro-2H-1,4-benzothiazin-7-yl]-1-[2-oxo-2-(1-piperidyl)ethyl]pyrazol-4-yl]pyrazolo[1,5-a]pyrimidine-3-carboxamide], the IC50 in assay [1] (Homo sapiens, BEAS-2B) is 13 nM. Further, the Ki in assay [2] was determined as 0.16 nM; in assay [3], 0.23 nM.
Regarding `CC1CNc2cc(OC(F)F)c(-c3nn(CC(=O)N4CCCCC4)cc3NC(=O)c3cnn4cccnc34)cc2S1` (single isomer, unassigned) [Example 102, N-[3-[6-(difluoromethoxy)-2-methyl-3,4-dihydro-2H-1,4-benzothiazin-7-yl]-1-[2-oxo-2-(1-piperidyl)ethyl]pyrazol-4-yl]pyrazolo[1,5-a]pyrimidine-3-carboxamide], the IC50 in assay [1] came out at 12 nM. Moreover, the Ki is 0.19 nM in assay [2] and 0.2 nM in assay [3].
On to `O=C(O)Cn1cc(NC(=O)c2cnn3cccnc23)c(-c2cc3ccccc3cc2OC(F)F)n1` [Example 2, 2-(3-(3-(difluoromethoxy)naphthalen-2-yl)-4-(pyrazolo[1,5-a]pyrimidine-3-carboxamido)-1H-pyrazol-1-yl)acetic acid], for which the IC50 in assay [1] (Homo sapiens, BEAS-2B) is 128 nM. Also, the Ki in assay [3] is 0.64 nM.
Regarding `CC(C)(C)OC(=O)N1CCC(C(=O)Cn2ncc3cc(-c4n[nH]cc4NC(=O)c4cnn5cccnc45)c(OC(F)F)cc32)CC1` [Example 18, tert-butyl 4-(2-(6-(difluoromethoxy)-5-(4-(pyrazolo[1,5-a]pyrimidine-3-carboxamido)-1H-pyrazol-3-yl)-1H-indazol-1-yl)acetyl)piperidine-1-carboxylate], the figures for the Ki in assay [2] and in assay [3] were 2.59 nM and 8.02 nM, respectively.
For `COc1cc2sc(C(N)=O)cc2cc1-c1n[nH]cc1NC(=O)c1cnn2cccnc12` [Example 23, N-(3-(2-carbamoyl-6-methoxybenzo[b]thiophen-5-yl)-1H-pyrazol-4-yl)pyrazolo[1,5-a]pyrimidine-3-carboxamide], the Ki in assay [2] was determined as 6.01 nM; in assay [3], 9.27 nM.
